From ChEMBL document CHEMBL1201862, “PubChem BioAssay data set” (2004)
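Compound exposure: 48 hours, 5 concentrations, 96-well plates. Here, GI50 denotes the concentration required for 50% inhibition of growth.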 The source made the active and inactive calls. No stated cut-off is given here; in the data, active = GI50 up to about 1.1 µM and inactive = higher.

Tests used:
Assay in all cases: NCI anticancer screen, dose series, 48 h
[1] = test system: MDA-N
[2] = test system: HCC 2998
[3] = test system: SN12C
[4] = test system: MCF7
[5] = test system: T47D
[6] = test system: ACHN
[7] = test system: PC-3
[8] = test system: DU-145
[9] = test system: NCI-H226
[10] = test system: Hs-578T
[11] = test system: HCT-15
[12] = test system: HOP-62
[13] = test system: BT-549
[14] = test system: A498
[15] = test system: 786-0
[16] = test system: CAKI-1
[17] = test system: LOX IMVI
[18] = test system: NCI/ADR-RES
[19] = test system: IGROV-1
[20] = test system: OVCAR-4
[21] = test system: EKVX
[22] = test system: SK-MEL-28
[23] = test system: MDA-MB-435
[24] = test system: UACC-257
[25] = test system: SF-295
[26] = test system: RXF 393
[27] = test system: UACC-62
[28] = test system: A549
[29] = test system: NCI-H460
[30] = test system: UO-31
[31] = test system: NCI-H522
[32] = test system: MDA-MB-231
[33] = test system: HCT-116
[34] = test system: Malme-3M
[35] = test system: HOP-92
[36] = test system: SK-MEL-5
[37] = test system: MOLT-4
[38] = test system: SF-539
[39] = test system: OVCAR-3
[40] = test system: KM12
[41] = test system: HT-29
[42] = test system: SNB-75
[43] = test system: K562
[44] = test system: COLO 205
[45] = test system: M14
[46] = test system: NCI-H23
[47] = test system: SF-268
[48] = test system: SNB-19
[49] = test system: TK-10
[50] = test system: U-251
[51] = test system: HL-60
[52] = test system: OVCAR-8
[53] = test system: SW-620
[54] = test system: RPMI-8226
[55] = test system: OVCAR-5
[56] = test system: CCRF-CEM
[57] = test system: SK-MEL-2
[58] = test system: SK-OV-3
[59] = test system: SR

Question: `C=C1C(=O)[C@@]23CC1C(O)[C@@H](OC(C)=O)[C@@H]2C1(C)C(OC(C)=O)C[C@@H](OC(C)=O)C(C)(C)[C@@H]1C[C@H]3OC(C)=O` (some centres undefined) was tested. Which GI50 [1] did it give?
Answer: The GI50 was 3.85 µM (inactive).

Question: And the GI50 [2]?
Answer: The GI50 was > 10 µM (inactive).

Question: What about the GI50 [3] of the same molecule?
Answer: Its GI50 is 3.77 µM (inactive).

Question: And the GI50 [4]?
Answer: Its GI50 is 2.58 µM (inactive).

Question: And the GI50 [5]?
Answer: Its GI50 is 2.12 µM (inactive).

Question: What about the GI50 [6] of the same molecule?
Answer: Its GI50 is > 10 µM (inactive).

Question: And the GI50 [7]?
Answer: The GI50 was > 10 µM (inactive).

Question: What about the GI50 [8] of the same molecule?
Answer: The GI50 was > 10 µM (inactive).

Question: And the GI50 [9]?
Answer: Its GI50 is > 10 µM (inactive).

Question: What about the GI50 [10] of the same molecule?
Answer: The GI50 was 2.9 µM (inactive).

Question: What about the GI50 [11] of the same molecule?
Answer: Its GI50 is 2.6 µM.

Question: And the GI50 [12]?
Answer: The GI50 was > 10 µM (inactive).

Question: What about the GI50 [13] of the same molecule?
Answer: Its GI50 is 1.47 µM (inactive).

Question: And the GI50 [14]?
Answer: The GI50 was > 10 µM (inactive).

Question: And the GI50 [15]?
Answer: Its GI50 is 5.52 µM (inactive).

Question: And the GI50 [16]?
Answer: Its GI50 is 6.27 µM (inactive).

Question: What about the GI50 [17] of the same molecule?
Answer: The GI50 was 6.35 µM (inactive).

Question: What about the GI50 [18] of the same molecule?
Answer: The GI50 was > 10 µM (inactive).

Question: What does the source list for `O=C(O)c1cc(-c2ccc(-c3ccccc3)cc2)nc2cc3ccccc3cc12`?
Answer: GI50 [19]: 26.4 µM (inactive); GI50 [20]: 29.4 µM (inactive); GI50 [3]: 61.9 µM (inactive); GI50 [21]: 57.1 µM (inactive); GI50 [22]: 87.5 µM (inactive); GI50 [23]: 72.9 µM (inactive); GI50 [24]: > 100 µM (inactive); GI50 [25]: 34.8 µM (inactive); GI50 [26]: 27.7 µM (inactive); GI50 [4]: > 100 µM (inactive); GI50 [27]: 25.5 µM (inactive); GI50 [5]: 49.5 µM (inactive); GI50 [6]: 46.6 µM (inactive); GI50 [28]: 19.8 µM (inactive); GI50 [7]: 17.5 µM (inactive); GI50 [29]: 6.35 µM (inactive); GI50 [30]: 61.9 µM (inactive); GI50 [31]: 27.7 µM (inactive); GI50 [32]: 21.2 µM (inactive); GI50 [33]: 31.3 µM (inactive); GI50 [34]: 84.5 µM (inactive); GI50 [35]: 28.2 µM (inactive); GI50 [8]: 66.8 µM (inactive); GI50 [9]: 35.7 µM (inactive); GI50 [36]: 26.4 µM (inactive); GI50 [10]: 32.3 µM (inactive); GI50 [37]: 11.6 µM (inactive); GI50 [11]: 8.15 µM; GI50 [38]: 31.2 µM (inactive); GI50 [39]: 47.9 µM (inactive); GI50 [12]: 30.3 µM (inactive); GI50 [13]: 35.9 µM (inactive); GI50 [14]: > 100 µM (inactive); GI50 [40]: 34.3 µM (inactive); GI50 [41]: 38 µM (inactive); GI50 [42]: 29.2 µM (inactive); GI50 [43]: 14.2 µM (inactive); GI50 [44]: 54.7 µM (inactive); GI50 [45]: > 100 µM (inactive); GI50 [15]: 25.9 µM (inactive); GI50 [16]: 42 µM (inactive); GI50 [46]: 36.8 µM (inactive); GI50 [47]: 35.2 µM (inactive); GI50 [48]: 35.6 µM (inactive); GI50 [49]: 58.2 µM (inactive); GI50 [50]: 20.7 µM (inactive); GI50 [51]: 19.1 µM (inactive); GI50 [52]: 57.1 µM (inactive); GI50 [17]: 66.7 µM (inactive); GI50 [18]: 75.7 µM (inactive); GI50 [53]: 40.4 µM (inactive); GI50 [54]: 29.6 µM (inactive); GI50 [55]: > 100 µM (inactive); GI50 [56]: 5.21 µM (inactive); GI50 [57]: 82 µM (inactive); GI50 [58]: > 100 µM (inactive); GI50 [59]: 5.43 µM (inactive)

Question: How did the GI50 [1] turn out when `O=[N+]([O-])C(=C1Nc2ccccc2N1)/C(Cl)=C(/Cl)N1CCOCC1` was run?
Answer: The GI50 was > 100 µM (inactive).

Question: And the GI50 [20]?
Answer: Its GI50 is 25.4 µM (inactive).

Question: What about the GI50 [2] of the same molecule?
Answer: The GI50 was > 100 µM (inactive).

Question: What about the GI50 [3] of the same molecule?
Answer: The GI50 was > 100 µM (inactive).

Question: What about the GI50 [21] of the same molecule?
Answer: The GI50 was > 100 µM (inactive).

Question: What about the GI50 [22] of the same molecule?
Answer: The GI50 was > 100 µM (inactive).

Question: And the GI50 [23]?
Answer: Its GI50 is > 100 µM (inactive).

Question: What about the GI50 [24] of the same molecule?
Answer: The GI50 was > 100 µM (inactive).

Question: What about the GI50 [25] of the same molecule?
Answer: The GI50 was 98.4 µM (inactive).

Question: And the GI50 [4]?
Answer: The GI50 was 45.8 µM (inactive).

Question: What about the GI50 [27] of the same molecule?
Answer: Its GI50 is 77.6 µM (inactive).

Question: And the GI50 [5]?
Answer: The GI50 was 15.1 µM (inactive).

Question: And the GI50 [6]?
Answer: The GI50 was 71.8 µM (inactive).

Question: And the GI50 [28]?
Answer: Its GI50 is > 100 µM (inactive).

Question: And the GI50 [7]?
Answer: The GI50 was 87.7 µM (inactive).

Question: And the GI50 [29]?
Answer: Its GI50 is > 100 µM (inactive).

Question: What about the GI50 [30] of the same molecule?
Answer: Its GI50 is > 100 µM (inactive).

Question: And the GI50 [32]?
Answer: The GI50 was 36.1 µM (inactive).

Question: What about the GI50 [33] of the same molecule?
Answer: Its GI50 is 89.5 µM (inactive).

Question: What about the GI50 [34] of the same molecule?
Answer: The GI50 was 27.2 µM (inactive).

Question: And the GI50 [9]?
Answer: Its GI50 is > 100 µM (inactive).

Question: What about the GI50 [10] of the same molecule?
Answer: Its GI50 is 34.6 µM (inactive).

Question: And the GI50 [37]?
Answer: The GI50 was 17.4 µM (inactive).

Question: What about the GI50 [11] of the same molecule?
Answer: The GI50 was 31.8 µM.

Question: What about the GI50 [38] of the same molecule?
Answer: Its GI50 is > 100 µM (inactive).

Question: And the GI50 [39]?
Answer: The GI50 was 26.7 µM (inactive).

Question: And the GI50 [12]?
Answer: Its GI50 is 97.9 µM (inactive).

Question: And the GI50 [13]?
Answer: The GI50 was 27.5 µM (inactive).

Question: And the GI50 [14]?
Answer: Its GI50 is > 100 µM (inactive).

Question: What about the GI50 [40] of the same molecule?
Answer: Its GI50 is > 100 µM (inactive).

Question: And the GI50 [41]?
Answer: Its GI50 is > 100 µM (inactive).

Question: What about the GI50 [42] of the same molecule?
Answer: The GI50 was 97.7 µM (inactive).

Question: And the GI50 [43]?
Answer: Its GI50 is 43.3 µM (inactive).

Question: What about the GI50 [44] of the same molecule?
Answer: Its GI50 is 80.9 µM (inactive).

Question: What about the GI50 [45] of the same molecule?
Answer: The GI50 was 88.5 µM (inactive).

Question: What about the GI50 [15] of the same molecule?
Answer: The GI50 was 98.9 µM (inactive).

Question: What about the GI50 [16] of the same molecule?
Answer: Its GI50 is > 100 µM (inactive).

Question: And the GI50 [46]?
Answer: Its GI50 is 29.3 µM (inactive).

Question: What about the GI50 [47] of the same molecule?
Answer: Its GI50 is 22.6 µM (inactive).

Question: And the GI50 [48]?
Answer: The GI50 was > 100 µM (inactive).

Question: What about the GI50 [50] of the same molecule?
Answer: Its GI50 is 61.9 µM (inactive).

Question: What about the GI50 [52] of the same molecule?
Answer: The GI50 was 28.8 µM (inactive).

Question: What about the GI50 [18] of the same molecule?
Answer: The GI50 was 57.8 µM (inactive).

Question: And the GI50 [53]?
Answer: The GI50 was 30.5 µM (inactive).

Question: What about the GI50 [54] of the same molecule?
Answer: The GI50 was 57.7 µM (inactive).

Question: What about the GI50 [55] of the same molecule?
Answer: The GI50 was > 100 µM (inactive).

Question: What about the GI50 [56] of the same molecule?
Answer: The GI50 was 50.8 µM (inactive).

Question: And the GI50 [57]?
Answer: The GI50 was > 100 µM (inactive).

Question: What about the GI50 [58] of the same molecule?
Answer: The GI50 was > 100 µM (inactive).
